The NIST ThermoML archive (doi:10.1016/j.jct.2016.07.008)

Experiment: xn = mol fraction of the nth substance listed
Details: Liquid, Vibrating wire viscometry

Cc1ccc(C)c(C)c1 [1,2,4-trimethylbenzene] + CCCCO
viscosity [mPa·s]
Details | 293.15 K | 313.15 K | 333.15 K | 353.15 K
100 kPa, x2 = 0.2999 | 1.004 | 0.7478 | 0.5848 | 0.4547
100 kPa, x2 = 0.5289 | 1.227 | 0.8685 | 0.6443 | 0.495
100 kPa, x2 = 0.7991 | 1.959 | 1.254 | 0.8537 | 0.6105
1000 kPa, x2 = 0.2999 | 1.019 | 0.7546 | 0.5927 | 0.4576
1000 kPa, x2 = 0.5289 | 1.228 | 0.8775 | 0.6496 | 0.4993
1000 kPa, x2 = 0.7991 | 1.977 | 1.271 | 0.8605 | 0.618
5000 kPa, x2 = 0.2999 | 1.066 | 0.7792 | 0.6096 | 0.4793
5000 kPa, x2 = 0.5289 | 1.29 | 0.9012 | 0.6816 | 0.5174
5000 kPa, x2 = 0.7991 | 2.057 | 1.332 | 0.8976 | 0.6396
10000 kPa, x2 = 0.2999 | 1.104 | 0.8286 | 0.6356 | 0.4978
10000 kPa, x2 = 0.5289 | 1.348 | 0.9526 | 0.7029 | 0.5381
10000 kPa, x2 = 0.7991 | 2.177 | 1.385 | 0.94 | 0.667
20000 kPa, x2 = 0.2999 | 1.197 | 0.8853 | 0.6805 | 0.5414
20000 kPa, x2 = 0.5289 | 1.462 | 1.029 | 0.753 | 0.5739
20000 kPa, x2 = 0.7991 | 2.381 | 1.506 | 1.026 | 0.7229
30000 kPa, x2 = 0.2999 | 1.292 | 0.9596 | 0.7326 | 0.577
30000 kPa, x2 = 0.5289 | 1.588 | 1.116 | 0.8089 | 0.6155
30000 kPa, x2 = 0.7991 | 2.563 | 1.645 | 1.107 | 0.7805
40000 kPa, x2 = 0.2999 | 1.391 | 1.025 | 0.7951 | 0.6166
40000 kPa, x2 = 0.5289 | 1.73 | 1.201 | 0.8688 | 0.6521
40000 kPa, x2 = 0.7991 | 2.757 | 1.759 | 1.197 | 0.8397
50000 kPa, x2 = 0.2999 | 1.516 | 1.105 | 0.8476 | 0.659
50000 kPa, x2 = 0.5289 | 1.87 | 1.293 | 0.9271 | 0.6945
50000 kPa, x2 = 0.7991 | 2.995 | 1.921 | 1.282 | 0.9004
60000 kPa, x2 = 0.2999 | 1.65 | 1.181 | 0.906 | 0.7031
60000 kPa, x2 = 0.5289 | 2.031 | 1.402 | 0.9904 | 0.7392
60000 kPa, x2 = 0.7991 | 3.241 | 2.046 | 1.379 | 0.9627
70000 kPa, x2 = 0.2999 | 1.804 | 1.271 | 0.9707 | 0.7463
70000 kPa, x2 = 0.5289 | 2.196 | 1.492 | 1.059 | 0.7855
70000 kPa, x2 = 0.7991 | 3.481 | 2.187 | 1.466 | 1.026
80000 kPa, x2 = 0.2999 | 1.938 | 1.357 | 1.03 | 0.7895
80000 kPa, x2 = 0.5289 | 2.401 | 1.612 | 1.131 | 0.8338
80000 kPa, x2 = 0.7991 | 3.754 | 2.342 | 1.577 | 1.092
100000 kPa, x2 = 0.2999 | 2.236 | 1.531 | 1.177 | 0.8968
100000 kPa, x2 = 0.5289 | 2.773 | 1.821 | 1.295 | 0.9482
100000 kPa, x2 = 0.7991 | 4.289 | 2.65 | 1.771 | 1.226
120000 kPa, x2 = 0.2999 | 2.578 | 1.753 | 1.308 | 0.997
120000 kPa, x2 = 0.5289 | 3.261 | 2.065 | 1.453 | 1.062
120000 kPa, x2 = 0.7991 | 4.849 | 2.995 | 1.945 | 1.367
140000 kPa, x2 = 0.2999 | 2.956 | 1.969 | 1.447 | 1.117
140000 kPa, x2 = 0.5289 | 3.719 | 2.367 | 1.615 | 1.194
140000 kPa, x2 = 0.7991 | 5.47 | 3.336 | 2.135 | 1.512
